Where “and” joins values, the source holds several entries; their conditions need not be identical. Identical values can stand only once. Counter-ions that a name gives are not always drawn.
Tests used:
[1] = molecular target: rNHE3 (Rattus norvegicus, UniProt P26433); assay: recovery of the intracellular pH (pHi) after acidification, BCECF fluorescence, NHE inhibition; assay type: cell-based; details: pH recovery recorded for three minutes in the case of NHE3; bicarbonate-free conditions
Description: In this test, the recovery of the intracellular pH (pHi) after an acidification was determined which commences with functional NHE even under bicarbonate-free conditions. For this, the pHi was determined using the pH-sensitive fluorescent dye BCECF (Calbiochem, the precursor BCECF-AM was employed). The cells were first loaded with BCECF. The BCECF fluorescence was determined in a “Ratio Fluorescence Spectrometer” (Photon Technology International, South Brunswick, N.J., USA) at excitation wavelengths of 505 and 440 nm and an emission wavelength of 535 nm and converted into the pHi by means of calibration curves. The cells were incubated in NH4Cl buffer (pH 7.4) even in the case of BCECF loading (NH4Cl buffer: 115 mM NaCl, 20 mM NH4Cl, 5 mM KCl, 1 mM CaCl2, 1 mM MgSO4, 20 mM Hepes, 5 mM glucose, 1 mg/ml of BSA; a pH of 7.4 is set using 1 M NaOH). The intracellular acidification was induced by addition of 975 μl of an NH4Cl-free buffer (see below) to 25 μl aliquots of the cells incubated in NH4Cl buffer. The subsequent rate of pH recovery was recorded for two minutes in the case of NHE1, for five minutes in the case of NHE2, and for three minutes in the case of NHE3. For the calculation of the inhibitory potency of the substances tested, the cells were first investigated in buffers in which a complete pH recovery or no pH recovery at all took place. For the complete pH recovery (100%), the cells were incubated in Na+-containing buffer (133.8 mM NaCl, 4.7 mM KCl, 1.25 mM CaCl2, 1.25 mM MgCl2, 0.97 mM […], 0.23 mM […], 5 mM Hepes, 5 mM glucose; a pH of 7.0 is set using 1 M NaOH). For the determination of the 0% value, the cells were incubated in an Na+-free buffer (133.8 mM choline chloride, 4.7 mM KCl, 1.25 mM CaCl2, 1.25 mM MgCl2, 0.97 mM K2HPO4, 0.23 mM KH2PO4, 5 mM Hepes, 5 mM glucose; a pH of 7.0 is set using 1 M NaOH). The substances to be tested were applied in the Na+-containing buffer. The recovery of the intracellular pH at each tested concentration of a substance was expressed in percent of the maximum recovery. The IC value of the respective substance for the individual NHE subtypes was calculated from the percentage values of the pH recovery by means of the program Sigma-Plot.

Sequence of rNHE3 (P26433 29-831): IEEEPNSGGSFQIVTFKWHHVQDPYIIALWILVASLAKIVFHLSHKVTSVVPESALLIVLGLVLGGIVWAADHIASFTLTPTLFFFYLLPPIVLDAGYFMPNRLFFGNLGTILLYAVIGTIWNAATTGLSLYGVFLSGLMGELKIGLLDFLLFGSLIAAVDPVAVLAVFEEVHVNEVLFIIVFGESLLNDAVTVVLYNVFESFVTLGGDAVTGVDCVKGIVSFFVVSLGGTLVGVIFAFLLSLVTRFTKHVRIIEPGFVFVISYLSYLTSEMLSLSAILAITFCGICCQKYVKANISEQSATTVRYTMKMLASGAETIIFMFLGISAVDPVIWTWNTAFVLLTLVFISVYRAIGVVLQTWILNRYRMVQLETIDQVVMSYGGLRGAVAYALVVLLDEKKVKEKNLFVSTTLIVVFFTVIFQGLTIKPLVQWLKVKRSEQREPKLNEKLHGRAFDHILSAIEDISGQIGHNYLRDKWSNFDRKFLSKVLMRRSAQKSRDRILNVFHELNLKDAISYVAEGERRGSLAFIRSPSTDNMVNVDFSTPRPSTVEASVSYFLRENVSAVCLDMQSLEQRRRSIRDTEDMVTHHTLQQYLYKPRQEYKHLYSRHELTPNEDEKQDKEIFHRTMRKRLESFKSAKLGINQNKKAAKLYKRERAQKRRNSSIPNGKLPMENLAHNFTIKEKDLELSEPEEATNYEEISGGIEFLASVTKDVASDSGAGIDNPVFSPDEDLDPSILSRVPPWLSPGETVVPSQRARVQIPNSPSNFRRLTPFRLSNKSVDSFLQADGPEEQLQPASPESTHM

Row | SMILES | IC50 [1] [µM] | melting point
1 | Clc1ccccc1Nc1nc2ccccc2[nH]1 [Example 16, (1H-Benzimidazol-2-yl)-(2-chlorophenyl)amine trifluoroacetate] | 0.63 | 
2 | Fc1ccc2[nH]c(Nc3c(Cl)cccc3Cl)nc2c1 (as salt: hydrochloride) [Example 9, 2-(2,6-Dichlorophenylamino)-5-fluorobenzimidazole hydrochloride] |  | 294 to 296 °C
3 | Cc1ccccc1Nc1nc2ccccc2[nH]1 [Example 19, (1H-Benzimidazol-2-yl)-o-tolylamine hydrochloride] | 3.5 | 
4 | Fc1cc2nc(Nc3c(Cl)cccc3Cl)[nH]c2cc1F [Example 5, (2,6-Dichlorophenyl)-(5,6-difluoro-1H-benzimidazol-2-yl)amine hydrochloride] | 0.78 | 
5 | Cc1cccc(C)c1Nc1nc2ccccc2[nH]1 [Example 3, (1H-Benzimidazol-2-yl)-(2,6-dimethylphenyl)amine trifluoracetate] | 0.64 | 
6 | Cl.Fc1cc(F)c2[nH]c(Nc3c(Cl)cccc3Cl)nc2c1 [Example 15, 2-(2,6-Dichlorophenylamino)-4,6-difluorobenzimidazole hydrochloride] | 1.6 | 310 to 314 °C
7 | Cl.Fc1ccc2nc(Nc3c(Cl)cccc3Cl)[nH]c2c1F [Example 12, 2-(2,6-Dichlorophenylamino)-4,5-difluorobenzimidazole hydrochloride] | 2.9 | 232 to 234 °C and 228 to 230 °C
8 | Cl.Oc1cccc2[nH]c(Nc3c(Cl)cccc3Cl)nc12 [Example 2, 2-(2,6-Dichlorophenylamino)-1H-benzimidazol-4-ol Hydrochloride] | 0.47 | 333 to 335 °C
9 | FC(F)(F)c1ccccc1Nc1nc2ccccc2[nH]1 [Example 17, (1H-Benzimidazol-2-yl)-(2-trifluoromethylphenyl)amine trifluoroacetate] | 3.5 | 
10 | FC(F)(F)c1cccc(Cl)c1Nc1nc2ccccc2[nH]1 (as salt: hydrochloride) [Example 11, 2-(2-Trifluoromethyl-6-chlorophenylamino)benzimidazole hydrochloride] |  | 255 to 288 °C
11 | Fc1c(F)c(F)c2[nH]c(Nc3c(Cl)cccc3Cl)nc2c1F [Example 14, 2-(2,6-Dichlorophenylamino)-4,5,6,7-tetrafluorobenzimidazole hydrochloride] | 5.6 | 
12 | Clc1cccc(Cl)c1Nc1nc2ccccc2[nH]1 [Example 1, (1H-Benzimidazol-2-yl)-(2,6-dichlorophenyl)amine hydrochloride] | 0.53 | 
13 | Brc1ccccc1Nc1nc2ccccc2[nH]1 [Example 18, (1H-Benzimidazol-2-yl)-(2-bromophenyl)amine trifluoroacetate] | 1.2 | 
14 | Fc1c(F)c(F)c2[nH]c(Nc3c(Cl)cccc3Cl)nc2c1F (as salt: hydrochloride) [Example 14, 2-(2,6-Dichlorophenylamino)-4,5,6,7-tetrafluorobenzimidazole hydrochloride] |  | 220 to 222 °C
15 | Fc1cccc(Cl)c1Nc1nc2ccccc2[nH]1 [Example 7, (1H-Benzimidazol-2-yl)-(2-chloro-6-fluorophenyl)amine hydrochloride] | 0.52 | 
16 | Oc1ccc2[nH]c(Nc3c(Cl)cccc3Cl)nc2c1 [Example 13, 2-(2,6-Dichlorophenylamino)-5-hydroxybenzimidazole hydrobromide] | 1.1 | 
17 | Oc1ccc2[nH]c(Nc3c(Cl)cccc3Cl)nc2c1 (as salt: hydrobromid) [Example 13, 2-(2,6-Dichlorophenylamino)-5-hydroxybenzimidazole hydrobromide] |  | 265 to 269 °C
18 | Cl.Fc1cccc2nc(Nc3c(Cl)cccc3Cl)[nH]c12 [Example 10, 2-(2,6-Dichlorophenylamino)-4-fluorobenzimidazole hydrochloride] | 3.2 | 268 to 296 °C
19 | Cc1cccc(Cl)c1Nc1nc2ccccc2[nH]1 [Example 4, (1H-Benzimidazol-2-yl)-(2-chloro-6-methylphenyl)amine hydrochloride] | 0.49 | 
20 | Cc1cccc2[nH]c(Nc3c(Cl)cccc3Cl)nc12 [Example 6, (2,6-Dichlorophenyl)-(4-methyl-1H-benzimidazol-2-yl)amine trifluoracetate] | 0.39 | 
21 | Fc1ccc2[nH]c(Nc3c(Cl)cccc3Cl)nc2c1 [Example 9, 2-(2,6-Dichlorophenylamino)-5-fluorobenzimidazole hydrochloride] | 1 | 
22 | Brc1cccc(Br)c1Nc1nc2ccccc2[nH]1 [Example 8, (1H-Benzimidazol-2-yl)-(2,6-dibromophenyl)amine trifluoroacetate] | 0.65 | 
23 | FC(F)(F)c1cccc(Cl)c1Nc1nc2ccccc2[nH]1 [Example 11, 2-(2-Trifluoromethyl-6-chlorophenylamino)benzimidazole hydrochloride] | 0.83 | 
